Test results as given in ChEMBL document CHEMBL1129144, “Stereoselective synthesis and biological activity of cis azetidinones as cholesterol absorption inhibitors” (1996).

What was measured:
Assay type in all cases: functional
Cricetinae gen. sp. [1] = assay: Compound was tested for % inhibition of cholesterol in the cholesterol-fed hamster model after oral administration at a dose of 10 mg/kg/day.
Cricetinae gen. sp. [2] = assay: Compound was tested for % inhibition of cholesterol in the cholesterol-fed hamster model after oral administration at a dose of 3 mg/kg/day.
Cricetinae gen. sp. [3] = assay: Compound was tested for cholesterol reduction in liver in the cholesterol-fed hamster model after oral administration.
Cricetinae gen. sp. [4] = assay: Compound was tested for % inhibition of cholesterol in the cholesterol-fed hamster model after oral administration at a dose of 25 mg/kg/day.
Cricetinae gen. sp. [5] = assay: Compound was tested for % inhibition of cholesterol in the cholesterol-fed hamster model after oral administration at a dose of 100 mg/kg/day.
Cricetinae gen. sp. [6] = assay: Compound was tested for cholesterol inhibition in the cholesterol-fed hamster model after oral administration.

| Structure (SMILES) | Reduction (Cricetinae gen. sp. [1]) [%] | ED50 (Cricetinae gen. sp. [3]) [mg/kg/day] | other results |
| --- | --- | --- | --- |
| COc1ccc([C@H]2[C@@H]([C@@H](O)CCc3ccccc3)C(=O)N2c2ccccc2)cc1 | 22 |  |  |
| COc1ccc([C@H]2[C@H]([C@@H](O)CCc3ccccc3)C(=O)N2c2ccccc2)cc1 | 0 |  |  |
| COc1ccc([C@H]2[C@@H]([C@H](O)CCc3ccccc3)C(=O)N2c2ccccc2)cc1 | 0 |  |  |
| COc1ccc([C@@H]2[C@H]([C@@H](O)CCc3ccccc3)C(=O)N2c2ccccc2)cc1 |  |  | Reduction (Cricetinae gen. sp. [2]): 0% |
| COc1ccc([C@@H]2[C@H](CCCc3ccccc3)C(=O)N2c2ccccc2)cc1 |  | 4 |  |
| COc1ccc([C@@H]2[C@H]([C@H](O)CCc3ccccc3)C(=O)N2c2ccccc2)cc1 |  | 0.4 |  |
| COc1ccc([C@@H]2[C@@H](CCCc3ccccc3)C(=O)N2c2ccccc2)cc1 |  | 0.54 |  |
| COc1ccc([C@H]2[C@H]([C@H](O)CCc3ccccc3)C(=O)N2c2ccccc2)cc1 | 38 |  |  |
| COc1ccc([C@H]2[C@H](CCCc3ccccc3)C(=O)N2c2ccccc2)cc1 |  |  | Reduction (Cricetinae gen. sp. [4]): 0% |
| COc1ccc([C@H]2[C@@H](CCCc3ccccc3)C(=O)N2c2ccccc2)cc1 |  |  | Reduction (Cricetinae gen. sp. [5]): 0% |
| COc1ccc(C2N(c3ccc(OC)cc3)C(=O)[C@]23CC[C@H](c2ccccc2)CC3)cc1 (stereo partly drawn) |  |  | ED50 (Cricetinae gen. sp. [6]): 3 mg/kg |
| COc1ccc([C@@H]2[C@@H]([C@@H](O)CCc3ccccc3)C(=O)N2c2ccccc2)cc1 |  | 8.6 |  |
| COc1ccc([C@@H]2[C@@H]([C@H](O)CCc3ccccc3)C(=O)N2c2ccccc2)cc1 |  | 1.2 |  |
